Columns and labels:
[1] = system: hBS cells; assay: Cytotoxicity test, viability by ATP content (CellTiterGlo), hBS cells; assay type: cell-based, human; conditions: hBS cells set to 1
[2] = system: hBS MPs; assay: Cytotoxicity test, viability by ATP content, hBS MPs (progenitor cells); assay type: cell-based, human; conditions: relative to hBS cells = 1
[3] = system: human foreskin fibroblasts (hFFs); assay: Cytotoxicity test, viability by ATP content, hFFs; assay type: cell-based; conditions: relative to hBS cells = 1
[4] = system: hBS cells; assay: Cytotoxicity test, viability by Resazurin reduction, hBS cells; assay type: cell-based, human; conditions: hBS cells set to 1
[5] = system: hBS MPs; assay: Cytotoxicity test, viability by Resazurin reduction, hBS MPs (progenitor cells); assay type: cell-based, human; conditions: relative to hBS cells = 1
[6] = system: human foreskin fibroblasts (hFFs); assay: Cytotoxicity test, viability by Resazurin reduction, hFFs; assay type: cell-based; conditions: relative to hBS cells = 1
[7] = system: hBS cells, hBS MPs and hFFs; assay: Cytotoxicity test, comparison over all cell types (hBS cells, progenitor cells, hFF); conditions: FIG. 3

Row | Structure (SMILES) | Ratio between the IC50 values measured using the ATP assay, hBS cells [1] | Ratio between the IC50 values measured using the ATP assay, Progenitors [2] | Ratio between the IC50 values measured using the ATP assay, hFF [3] | Ratio between the IC50 values measured using the Rezasurin assay, hBS cells [4] | Ratio between the IC50 values measured using the Rezasurin assay, Progenitors [5] | Ratio between the IC50 values measured using the Rezasurin assay, hFF [6] | toxic reaction [7]
1 | O=c1[nH]cc(F)c(=O)[nH]1 [5-FU, 5-Fluorouracil] | 1 | 2 | 7 | 1 | 1 | 2.5 | 
2 | CC1=C(/C=C/C(C)=C/C=C/C(C)=C\C(=O)O)C(C)(C)CCC1 [13CRA, 13-cis retinoic acid] | 1 | 0.000025 | >6 | 1 | 0.000001 | >7 | 
3 | CC1=C(/C=C/C(C)=C/C=C/C(C)=C/C(=O)O)C(C)(C)CCC1 [ATRA, all-trans retinoic acid] | 1 | 0.0001 | >4 | 1 | 0.0005 | >6 | 
4 | O=C1NS(=O)(=O)c2ccccc21.[Na] [Saccharin, Sodium Saccharin] |  |  |  |  |  |  | no toxic reaction

— US8153359B2, “Toxicity assay based on human blastocyst-derived stem cells and progenitor cells” (Cellartis AB, priority 2006, dated 2012)
